According to ChEMBL document CHEMBL1201862, “PubChem BioAssay data set” (2004):
Active and inactive are the calls of the source.

How the values were obtained:
CAAX prenyl protease 2 [1] = target: T1, CAAX prenyl protease 2 (Homo sapiens, UniProt Q9Y256); assay: human Rce1 protease inhibitors, dose response, biochemical, yeast membranes, quenched-peptide fluorescence, cherry-pick (AID 588849)
T1 sequence (Q9Y256 whole entry): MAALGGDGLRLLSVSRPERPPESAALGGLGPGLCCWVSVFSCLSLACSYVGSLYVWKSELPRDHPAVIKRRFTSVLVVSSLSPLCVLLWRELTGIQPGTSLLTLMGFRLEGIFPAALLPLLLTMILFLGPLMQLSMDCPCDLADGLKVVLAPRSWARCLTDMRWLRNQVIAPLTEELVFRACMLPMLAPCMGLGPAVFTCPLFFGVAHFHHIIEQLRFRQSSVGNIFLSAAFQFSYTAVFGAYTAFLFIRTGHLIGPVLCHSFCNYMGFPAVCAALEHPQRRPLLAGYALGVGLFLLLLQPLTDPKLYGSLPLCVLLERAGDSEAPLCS

[2] = target: Eukaryotic translation initiation factor 4E (Mus musculus, UniProt P63073); assay: eIF4E–eIF4G protein interaction inhibitors, dose response, biochemical, TR-FRET (AID 855); format: functional;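 further: potency for disrupting eIF4E binding to eIF4GI seen as loss of FRET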
Eukaryotic translation initiation factor 4E, sequence (P63073 whole entry): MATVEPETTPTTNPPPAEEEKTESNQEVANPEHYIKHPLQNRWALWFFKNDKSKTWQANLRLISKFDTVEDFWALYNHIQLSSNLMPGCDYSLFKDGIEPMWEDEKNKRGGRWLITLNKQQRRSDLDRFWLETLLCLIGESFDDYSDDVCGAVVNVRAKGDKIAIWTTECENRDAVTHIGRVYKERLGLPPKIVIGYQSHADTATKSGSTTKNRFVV

[3] = target: T2, Heat shock factor protein 1 (Mus musculus, UniProt P38532); assay: inhibition of MG132-induced HSE-luciferase signal, confirmation, cell-based, NIH3T3, luminescence, dose retest (AID 2382); format: functional;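 further: NIH3T3 fibroblasts with HSF1-driven luciferase reporter stressed by proteasome inhibitor MG132; luminescence from HSF1-driven luciferase expression after 8 hours of MG132 stress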
T2 sequence (P38532 whole entry): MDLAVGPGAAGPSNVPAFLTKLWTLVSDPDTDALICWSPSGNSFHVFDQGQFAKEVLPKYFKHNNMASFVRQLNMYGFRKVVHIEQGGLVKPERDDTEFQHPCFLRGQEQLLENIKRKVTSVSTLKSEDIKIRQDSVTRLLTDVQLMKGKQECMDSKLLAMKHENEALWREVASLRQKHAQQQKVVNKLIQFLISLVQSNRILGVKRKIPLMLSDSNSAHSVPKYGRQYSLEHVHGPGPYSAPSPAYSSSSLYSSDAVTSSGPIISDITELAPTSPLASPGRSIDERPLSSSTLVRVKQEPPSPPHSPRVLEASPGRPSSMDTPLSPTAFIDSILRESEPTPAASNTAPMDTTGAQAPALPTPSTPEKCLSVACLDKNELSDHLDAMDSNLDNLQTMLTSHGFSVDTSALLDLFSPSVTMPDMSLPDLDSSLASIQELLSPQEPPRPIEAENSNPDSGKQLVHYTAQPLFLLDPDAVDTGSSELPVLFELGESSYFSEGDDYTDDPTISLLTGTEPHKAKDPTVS

HEK293 [4] = assay: NOD2 signaling inhibitors in MDP-stimulated cells, cell-based, uHTS, luminescence (AID 2001); format: functional; conditions: Homo sapiens
HEK293 [5] = assay: cells; format: functional, cell-based; conditions: Homo sapiens
HEK293 [6] = assay: cells; format: functional, cell-based; conditions: Homo sapiens; remark: listed apart in the source
[7] = target: Nucleotide-binding oligomerization domain-containing protein 2 (Homo sapiens, UniProt Q9HC29); assay: NOD2 signaling inhibitors, cell-based, luminescence, uHTS, HEK293 (AID 1566); format: functional
HEK293 [8] = assay: NOD1 signaling inhibitors, primary screen, cell-based, luminescence, uHTS (AID 1578); format: functional; conditions: Homo sapiens
Ion channel NompC = Ion channel NompC (Danio rerio, UniProt Q7T1G6); assay: Dose response cell-based high-throughput screening assay for agonists of the transient receptor potential channel N1 (TRPN1). [Related pubchem assays (depositor defined):AID1424, AID1448]; format: functional
Ion channel NompC, sequence (Q7T1G6 whole entry): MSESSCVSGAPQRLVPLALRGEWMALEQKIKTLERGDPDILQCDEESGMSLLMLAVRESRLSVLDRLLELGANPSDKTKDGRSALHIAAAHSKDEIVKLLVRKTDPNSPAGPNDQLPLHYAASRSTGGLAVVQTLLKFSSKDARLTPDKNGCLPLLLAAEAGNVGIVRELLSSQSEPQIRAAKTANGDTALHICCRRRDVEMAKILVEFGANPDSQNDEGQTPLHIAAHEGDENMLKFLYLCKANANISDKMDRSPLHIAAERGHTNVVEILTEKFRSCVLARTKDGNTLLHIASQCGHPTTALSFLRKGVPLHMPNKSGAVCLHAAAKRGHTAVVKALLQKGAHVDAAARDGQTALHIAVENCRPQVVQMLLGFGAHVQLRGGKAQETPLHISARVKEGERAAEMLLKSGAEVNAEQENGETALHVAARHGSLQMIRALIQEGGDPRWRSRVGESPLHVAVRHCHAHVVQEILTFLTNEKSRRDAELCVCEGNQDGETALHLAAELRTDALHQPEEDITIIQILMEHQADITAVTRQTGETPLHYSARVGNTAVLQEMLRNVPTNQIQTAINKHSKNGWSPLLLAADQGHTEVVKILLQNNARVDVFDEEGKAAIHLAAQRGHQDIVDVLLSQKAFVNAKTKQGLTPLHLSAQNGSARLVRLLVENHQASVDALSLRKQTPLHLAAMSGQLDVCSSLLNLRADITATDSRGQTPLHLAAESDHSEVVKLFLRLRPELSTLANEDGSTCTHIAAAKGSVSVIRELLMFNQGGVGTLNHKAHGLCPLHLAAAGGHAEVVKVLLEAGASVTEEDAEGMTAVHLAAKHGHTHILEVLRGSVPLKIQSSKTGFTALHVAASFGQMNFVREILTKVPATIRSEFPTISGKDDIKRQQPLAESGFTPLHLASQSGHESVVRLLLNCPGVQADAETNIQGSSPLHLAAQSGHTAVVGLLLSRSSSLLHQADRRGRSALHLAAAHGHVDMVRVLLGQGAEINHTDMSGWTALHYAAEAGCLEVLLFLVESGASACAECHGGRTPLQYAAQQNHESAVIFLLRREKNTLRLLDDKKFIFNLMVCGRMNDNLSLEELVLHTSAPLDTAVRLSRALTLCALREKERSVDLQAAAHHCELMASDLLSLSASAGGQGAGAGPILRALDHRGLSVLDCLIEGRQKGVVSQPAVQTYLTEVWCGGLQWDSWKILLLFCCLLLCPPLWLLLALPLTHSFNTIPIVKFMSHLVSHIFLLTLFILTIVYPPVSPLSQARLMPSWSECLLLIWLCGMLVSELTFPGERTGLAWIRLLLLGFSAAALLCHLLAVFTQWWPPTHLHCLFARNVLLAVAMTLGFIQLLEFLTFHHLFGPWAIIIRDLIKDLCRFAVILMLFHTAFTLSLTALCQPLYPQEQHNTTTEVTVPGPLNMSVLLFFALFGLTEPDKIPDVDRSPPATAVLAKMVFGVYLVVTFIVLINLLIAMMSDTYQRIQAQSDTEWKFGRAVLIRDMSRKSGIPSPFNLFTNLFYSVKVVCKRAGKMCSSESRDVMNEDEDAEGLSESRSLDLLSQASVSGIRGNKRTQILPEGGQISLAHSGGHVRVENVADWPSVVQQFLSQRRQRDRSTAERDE

Mucolipin-3 = target: T3, Mucolipin-3 (Homo sapiens, UniProt Q8TDD5); assay: Fluorescence counterscreen assay for […] agonists: dose response cell-based high-throughput screening assay to identify agonists of the transient receptor potential channel ML3 (TRPML3). [Related pubchem assays: 1424, 1448 ]; format: functional
T3 sequence (Q8TDD5 whole entry): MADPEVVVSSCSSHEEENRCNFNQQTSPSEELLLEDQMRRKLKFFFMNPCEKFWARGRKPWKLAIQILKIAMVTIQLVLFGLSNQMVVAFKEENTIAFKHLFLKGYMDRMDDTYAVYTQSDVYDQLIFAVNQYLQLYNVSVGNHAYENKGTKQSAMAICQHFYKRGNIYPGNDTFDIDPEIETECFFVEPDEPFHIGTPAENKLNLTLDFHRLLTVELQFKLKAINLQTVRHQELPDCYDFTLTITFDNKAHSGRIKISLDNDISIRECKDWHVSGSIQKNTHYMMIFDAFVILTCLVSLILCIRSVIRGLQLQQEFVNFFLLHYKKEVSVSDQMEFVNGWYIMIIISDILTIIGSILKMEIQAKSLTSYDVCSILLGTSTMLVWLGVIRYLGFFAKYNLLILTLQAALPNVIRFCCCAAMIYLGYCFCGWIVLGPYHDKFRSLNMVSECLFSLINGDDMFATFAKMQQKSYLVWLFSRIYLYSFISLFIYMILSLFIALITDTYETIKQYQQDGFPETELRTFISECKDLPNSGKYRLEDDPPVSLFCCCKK

[9] = target: T4, Type-1 angiotensin II receptor (Homo sapiens, UniProt P30556); assay: AT1 receptor antagonists, dose response, selectivity assay for APJ receptor antagonist project, cell-based, uHTS hits (AID 463214); format: functional;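 further: antagonist potency against angiotensin II stimulated AT1 response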
T4 sequence (P30556 whole entry): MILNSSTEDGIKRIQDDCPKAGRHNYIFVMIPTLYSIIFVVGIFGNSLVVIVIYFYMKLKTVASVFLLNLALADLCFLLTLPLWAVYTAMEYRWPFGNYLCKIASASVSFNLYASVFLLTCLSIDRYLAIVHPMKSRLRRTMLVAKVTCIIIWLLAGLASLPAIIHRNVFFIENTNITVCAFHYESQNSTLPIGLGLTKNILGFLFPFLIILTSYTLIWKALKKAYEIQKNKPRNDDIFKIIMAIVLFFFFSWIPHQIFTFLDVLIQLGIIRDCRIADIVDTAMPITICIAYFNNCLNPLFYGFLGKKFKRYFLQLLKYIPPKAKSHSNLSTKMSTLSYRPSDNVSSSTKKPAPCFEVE

Beta-galactosidase = Beta-galactosidase (Escherichia coli, UniProt Q8VNN2); assay: PubChem AID 485352; format: functional
Beta-galactosidase, sequence (Q8VNN2 whole entry): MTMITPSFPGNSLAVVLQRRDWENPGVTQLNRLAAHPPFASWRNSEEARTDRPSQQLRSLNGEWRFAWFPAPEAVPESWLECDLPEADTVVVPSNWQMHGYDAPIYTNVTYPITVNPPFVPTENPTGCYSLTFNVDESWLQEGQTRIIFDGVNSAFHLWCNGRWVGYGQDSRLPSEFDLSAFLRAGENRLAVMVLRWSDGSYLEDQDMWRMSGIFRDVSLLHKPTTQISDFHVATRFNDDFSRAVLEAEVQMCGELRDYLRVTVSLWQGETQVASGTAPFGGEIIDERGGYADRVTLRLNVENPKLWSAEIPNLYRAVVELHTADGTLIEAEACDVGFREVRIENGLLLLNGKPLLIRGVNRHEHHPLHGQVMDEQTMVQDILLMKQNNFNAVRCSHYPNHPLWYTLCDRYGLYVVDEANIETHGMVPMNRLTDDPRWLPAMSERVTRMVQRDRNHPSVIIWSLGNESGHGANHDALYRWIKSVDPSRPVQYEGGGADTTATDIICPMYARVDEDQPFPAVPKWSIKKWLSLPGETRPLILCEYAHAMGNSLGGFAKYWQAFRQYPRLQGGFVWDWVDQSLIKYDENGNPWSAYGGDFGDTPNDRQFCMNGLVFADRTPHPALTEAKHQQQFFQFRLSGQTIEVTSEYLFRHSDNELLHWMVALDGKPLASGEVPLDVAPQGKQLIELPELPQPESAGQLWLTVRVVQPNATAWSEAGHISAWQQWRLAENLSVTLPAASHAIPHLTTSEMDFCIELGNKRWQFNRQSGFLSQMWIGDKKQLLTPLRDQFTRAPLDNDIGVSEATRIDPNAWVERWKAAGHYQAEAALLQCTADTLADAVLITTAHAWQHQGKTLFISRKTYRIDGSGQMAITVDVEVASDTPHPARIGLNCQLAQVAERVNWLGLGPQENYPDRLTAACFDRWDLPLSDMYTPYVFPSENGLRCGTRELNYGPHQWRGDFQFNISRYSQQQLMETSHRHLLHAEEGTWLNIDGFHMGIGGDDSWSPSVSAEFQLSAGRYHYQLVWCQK

[10] = target: T5, Alkaline phosphatase, tissue-nonspecific isozyme (Homo sapiens, UniProt P05186); assay: human TNAP enzyme inhibitors, SAR follow-up, biochemical, luminescent, dose response (AID 1056)
T5 sequence (P05186 whole entry): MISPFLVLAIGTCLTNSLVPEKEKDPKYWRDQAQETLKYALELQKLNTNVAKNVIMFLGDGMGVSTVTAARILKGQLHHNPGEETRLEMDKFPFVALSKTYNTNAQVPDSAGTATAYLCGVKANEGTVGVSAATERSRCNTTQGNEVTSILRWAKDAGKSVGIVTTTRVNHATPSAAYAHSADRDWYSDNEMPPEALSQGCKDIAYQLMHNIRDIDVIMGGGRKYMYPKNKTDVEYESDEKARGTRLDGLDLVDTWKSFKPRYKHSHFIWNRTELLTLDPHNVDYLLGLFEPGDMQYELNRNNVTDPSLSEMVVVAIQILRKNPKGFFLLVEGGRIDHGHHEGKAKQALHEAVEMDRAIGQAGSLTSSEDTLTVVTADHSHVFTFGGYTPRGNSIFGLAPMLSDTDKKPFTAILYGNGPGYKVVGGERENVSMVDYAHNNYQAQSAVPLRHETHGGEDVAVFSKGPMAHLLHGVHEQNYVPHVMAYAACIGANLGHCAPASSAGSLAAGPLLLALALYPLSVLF

[11] = target: T6, Acyl-homoserine lactone acylase PvdQ (Pseudomonas aeruginosa (strain LESB58), UniProt Q9I194); assay: P. aeruginosa PvdQ acylase inhibitors, dose response, biochemical, fluorescence, plate reader and imaging, cherry-picks (AID 493231)
T6 sequence (Q9I194 whole entry): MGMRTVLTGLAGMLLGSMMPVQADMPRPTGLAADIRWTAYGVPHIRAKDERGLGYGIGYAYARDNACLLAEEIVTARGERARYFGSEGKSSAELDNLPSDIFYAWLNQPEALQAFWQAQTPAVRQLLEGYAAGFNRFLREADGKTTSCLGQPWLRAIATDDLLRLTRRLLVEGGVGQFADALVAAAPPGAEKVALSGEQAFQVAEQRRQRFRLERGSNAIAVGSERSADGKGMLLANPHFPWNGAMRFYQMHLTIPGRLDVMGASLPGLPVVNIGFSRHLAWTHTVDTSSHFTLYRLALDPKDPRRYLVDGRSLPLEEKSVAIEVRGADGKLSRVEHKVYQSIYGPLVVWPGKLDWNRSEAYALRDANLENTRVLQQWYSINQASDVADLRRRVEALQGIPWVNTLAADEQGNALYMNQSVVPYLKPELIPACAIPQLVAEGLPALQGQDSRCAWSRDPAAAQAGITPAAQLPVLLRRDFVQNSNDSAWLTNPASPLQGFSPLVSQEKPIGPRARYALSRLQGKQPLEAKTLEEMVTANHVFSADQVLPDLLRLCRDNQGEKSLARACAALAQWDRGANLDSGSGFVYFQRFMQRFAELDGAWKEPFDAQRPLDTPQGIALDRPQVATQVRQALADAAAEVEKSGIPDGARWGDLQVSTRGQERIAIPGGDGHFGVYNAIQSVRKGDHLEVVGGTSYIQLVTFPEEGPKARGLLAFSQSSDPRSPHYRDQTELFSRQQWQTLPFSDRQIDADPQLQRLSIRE

[12] = target: Glyceraldehyde-3-phosphate dehydrogenase (Homo sapiens, UniProt P04406)
Glyceraldehyde-3-phosphate dehydrogenase, sequence (P04406 whole entry): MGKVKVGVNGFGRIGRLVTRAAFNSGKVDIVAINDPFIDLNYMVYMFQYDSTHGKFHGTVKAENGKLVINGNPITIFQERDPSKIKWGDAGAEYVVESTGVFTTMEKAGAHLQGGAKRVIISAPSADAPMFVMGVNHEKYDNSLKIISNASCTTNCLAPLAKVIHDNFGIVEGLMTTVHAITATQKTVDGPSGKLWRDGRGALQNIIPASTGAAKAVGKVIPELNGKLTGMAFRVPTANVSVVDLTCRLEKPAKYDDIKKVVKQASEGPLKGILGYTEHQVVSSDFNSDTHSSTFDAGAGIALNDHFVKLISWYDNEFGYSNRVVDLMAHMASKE

Trypsin = Trypsin (Sus scrofa, UniProt P00761); assay: porcine trypsin inhibitors, dose response, selectivity assay for Rce1 protease inhibitor project, biochemical, quenched peptide fluorescence, cherry-pick (AID 488789)
Trypsin, sequence (P00761 whole entry): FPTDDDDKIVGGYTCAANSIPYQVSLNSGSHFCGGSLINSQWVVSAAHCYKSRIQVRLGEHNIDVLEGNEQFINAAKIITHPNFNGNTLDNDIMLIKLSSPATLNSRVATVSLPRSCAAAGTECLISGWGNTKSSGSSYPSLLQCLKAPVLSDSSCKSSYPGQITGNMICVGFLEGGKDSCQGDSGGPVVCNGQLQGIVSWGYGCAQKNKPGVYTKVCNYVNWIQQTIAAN

[13] = Luminescence Cell-Based Dose Retest to Confirm Inhibitors of Cancer Stem Cells. [Related pubchem assays (depositor defined):AID2717, AID2721]; format: functional; conditions: Homo sapiens
CAAX prenyl protease 2 [14] = target: T7, CAAX prenyl protease 2 (Saccharomyces cerevisiae S288c, UniProt Q03530); format: biochemical
T7 sequence (Q03530 whole entry): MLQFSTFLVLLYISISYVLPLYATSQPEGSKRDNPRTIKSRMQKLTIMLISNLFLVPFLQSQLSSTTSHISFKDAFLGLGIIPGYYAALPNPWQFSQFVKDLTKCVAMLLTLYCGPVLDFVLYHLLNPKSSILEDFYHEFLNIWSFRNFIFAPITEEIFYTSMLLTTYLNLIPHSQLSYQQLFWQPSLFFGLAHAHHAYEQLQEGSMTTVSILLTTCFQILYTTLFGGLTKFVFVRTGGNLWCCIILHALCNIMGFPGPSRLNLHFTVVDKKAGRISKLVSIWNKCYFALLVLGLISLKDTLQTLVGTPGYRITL

[15] = target: T8, Mannose-6-phosphate isomerase (Homo sapiens, UniProt P34949); assay: human PMI inhibitors, high substrate, primary screen, biochemical, fluorescence intensity, high mannose 6-phosphate (AID 1220)
T8 sequence (P34949 whole entry): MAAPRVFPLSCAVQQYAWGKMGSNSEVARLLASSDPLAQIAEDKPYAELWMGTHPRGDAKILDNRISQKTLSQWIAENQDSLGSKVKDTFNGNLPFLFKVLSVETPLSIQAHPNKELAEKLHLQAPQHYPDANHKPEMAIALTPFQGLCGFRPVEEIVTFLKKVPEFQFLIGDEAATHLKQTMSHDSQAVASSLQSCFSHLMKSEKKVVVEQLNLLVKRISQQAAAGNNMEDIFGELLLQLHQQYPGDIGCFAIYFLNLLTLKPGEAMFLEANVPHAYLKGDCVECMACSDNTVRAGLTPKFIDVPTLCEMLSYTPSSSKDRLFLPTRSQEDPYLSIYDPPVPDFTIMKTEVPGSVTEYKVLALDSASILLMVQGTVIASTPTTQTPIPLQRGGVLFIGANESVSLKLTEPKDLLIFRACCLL

Estrogen receptor beta = Estrogen receptor beta (Homo sapiens, UniProt Q92731); assay: ERβ–SRC-3 coactivator interaction inhibitors, confirmation, orthogonal assay, biochemical, ELISA, streptavidin-HRP readout (AID 1060)
Estrogen receptor beta, sequence (Q92731 whole entry): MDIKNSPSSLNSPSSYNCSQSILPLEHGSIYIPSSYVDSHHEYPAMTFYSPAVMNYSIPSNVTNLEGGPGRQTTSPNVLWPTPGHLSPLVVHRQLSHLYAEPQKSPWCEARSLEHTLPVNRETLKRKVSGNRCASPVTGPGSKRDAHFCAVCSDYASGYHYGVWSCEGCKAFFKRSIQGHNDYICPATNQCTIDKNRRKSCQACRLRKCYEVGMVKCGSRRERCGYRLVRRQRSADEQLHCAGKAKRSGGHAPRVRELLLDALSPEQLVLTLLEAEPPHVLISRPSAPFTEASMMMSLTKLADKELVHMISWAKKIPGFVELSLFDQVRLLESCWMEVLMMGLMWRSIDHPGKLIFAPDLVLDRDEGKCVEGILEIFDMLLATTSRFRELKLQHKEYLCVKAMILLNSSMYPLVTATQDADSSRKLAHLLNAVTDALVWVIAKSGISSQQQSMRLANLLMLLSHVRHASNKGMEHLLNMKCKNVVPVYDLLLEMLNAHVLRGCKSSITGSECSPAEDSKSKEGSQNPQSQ

[16] = target: T9, Polyadenylate-binding protein 1 (Homo sapiens, UniProt P11940); assay: PABP1 MLLE–PAM2 interaction inhibitors, dose response, miRNA deadenylation inhibitor project, biochemical, fluorescence polarization, Cy5-PAM2 peptide, secondary (AID 602260); format: functional; conditions: read-out: IC50_Mean
T9 sequence (P11940 whole entry): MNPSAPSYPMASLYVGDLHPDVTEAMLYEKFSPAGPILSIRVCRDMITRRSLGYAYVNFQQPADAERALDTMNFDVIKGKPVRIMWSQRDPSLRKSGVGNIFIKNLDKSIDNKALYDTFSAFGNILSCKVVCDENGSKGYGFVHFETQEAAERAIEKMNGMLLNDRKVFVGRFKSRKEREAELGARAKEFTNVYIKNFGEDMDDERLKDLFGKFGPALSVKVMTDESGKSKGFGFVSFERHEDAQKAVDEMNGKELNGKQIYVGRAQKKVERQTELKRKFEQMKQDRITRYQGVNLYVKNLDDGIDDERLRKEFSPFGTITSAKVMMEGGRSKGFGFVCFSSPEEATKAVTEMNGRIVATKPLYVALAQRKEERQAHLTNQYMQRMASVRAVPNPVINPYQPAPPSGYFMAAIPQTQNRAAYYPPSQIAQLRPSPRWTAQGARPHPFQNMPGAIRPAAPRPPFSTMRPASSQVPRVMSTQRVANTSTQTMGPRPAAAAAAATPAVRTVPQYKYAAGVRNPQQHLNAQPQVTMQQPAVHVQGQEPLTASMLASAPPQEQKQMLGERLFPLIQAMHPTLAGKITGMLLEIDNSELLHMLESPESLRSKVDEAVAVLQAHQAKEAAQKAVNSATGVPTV

Nonstructural protein 1 = Nonstructural protein 1 (Influenza A virus, UniProt Q194T2); format: functional, Influenza A virus (A/California/07/2009(H1N1))
Nonstructural protein 1, sequence (Q194T2 whole entry): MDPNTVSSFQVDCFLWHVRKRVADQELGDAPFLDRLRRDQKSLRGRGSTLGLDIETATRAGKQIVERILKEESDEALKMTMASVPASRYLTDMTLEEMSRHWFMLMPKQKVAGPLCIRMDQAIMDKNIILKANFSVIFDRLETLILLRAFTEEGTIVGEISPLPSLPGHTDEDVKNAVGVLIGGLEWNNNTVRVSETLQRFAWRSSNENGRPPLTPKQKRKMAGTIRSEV

[17] = target: T9, Polyadenylate-binding protein 1; assay: PABP1 MLLE–PAM2 binding inhibitor potency, dose response, biochemical, fluorescence polarization, FITC-PAM2 peptide (AID 602259); format: functional; conditions: read-out: IC50_Mean

COC(=O)Cn1c(CCC(=O)O)ccc1-c1ccccc1
AC50 (CAAX prenyl protease 2 [1]): 32.7 µM (active)

O=C(OCc1cc(=O)n2c(n1)sc1ccccc12)c1ccc(O)cc1O
IC50 [2]: 50 µM (inactive)

CCOc1ccccc1-n1c(SCC(=O)Nc2ccccc2C(=O)O)nc2ccccc2c1=O
EC50 [3]: 4.46 µM (active)
IC50 (HEK293 [4]): > 20 µM (inactive)
IC50 (HEK293 [5]): > 20 µM (inactive)
IC50 (HEK293 [6]): > 20 µM (inactive)
EC50 [7]: > 20 µM (inactive)
EC50 (HEK293 [8]): > 20 µM (inactive)

S=C(NCCCc1ccccc1)Nc1ccccc1Cl
EC50 (Ion channel NompC): > 29.9 µM (inactive)
EC50 (Mucolipin-3): > 29.9 µM (not active)

CNS(=O)(=O)c1cccc(C(=O)OCC(=O)c2cc3ccccc3o2)c1
IC50 [9]: 15.5 µM (active)
EC50 (Beta-galactosidase): > 40 µM (inactive)

COC(=O)c1cc(-c2ccc(Br)cc2)on1
IC50 [10]: > 100 µM (inactive)
AC50 [11]: 4.37 µM (active)
IC50 [12]: > 100 µM (not active)

O=[N+]([O-])c1ccc(Oc2ccc(S(=O)(=O)Nc3ccccc3)cc2)cc1
EC50 (Ion channel NompC): > 29.9 µM (inactive)
EC50 (Mucolipin-3): > 29.9 µM (not active)

COc1ccc(Br)cc1S(=O)(=O)n1cc(C(N)=O)c2ccccc21
IC50 [10]: > 100 µM (inactive)
IC50 [12]: > 100 µM (not active)

CS(=O)(=O)Nc1ccccc1C(=O)Nc1cccc(Cl)c1
AC50 (Trypsin): 6.73 µM (active)
AC50 [13]: 45.2 µM (active)
AC50 (CAAX prenyl protease 2 [14]): 21.8 µM (active)

CCOC(=O)N1CCN(C(c2cccnc2)c2ccc3cccnc3c2O)CC1 (stereo not drawn)
IC50 [15]: 32 µM (active)
IC50 (Estrogen receptor beta): 10.6 µM (not active)
IC50 [16]: > 66 µM (inactive)
IC50 (Nonstructural protein 1): 14.6 µM (active)
IC50 [2]: > 64 µM (inactive)
IC50 [17]: > 66 µM (inactive)
